We go through 2 molecules from ChEMBL document CHEMBL5696441 (Nat Chem Biol, 2011).

In test [1] the target is T1, cGMP-dependent protein kinase 1 (Homo sapiens) (UniProt Q13976).
T1 sequence (whole entry): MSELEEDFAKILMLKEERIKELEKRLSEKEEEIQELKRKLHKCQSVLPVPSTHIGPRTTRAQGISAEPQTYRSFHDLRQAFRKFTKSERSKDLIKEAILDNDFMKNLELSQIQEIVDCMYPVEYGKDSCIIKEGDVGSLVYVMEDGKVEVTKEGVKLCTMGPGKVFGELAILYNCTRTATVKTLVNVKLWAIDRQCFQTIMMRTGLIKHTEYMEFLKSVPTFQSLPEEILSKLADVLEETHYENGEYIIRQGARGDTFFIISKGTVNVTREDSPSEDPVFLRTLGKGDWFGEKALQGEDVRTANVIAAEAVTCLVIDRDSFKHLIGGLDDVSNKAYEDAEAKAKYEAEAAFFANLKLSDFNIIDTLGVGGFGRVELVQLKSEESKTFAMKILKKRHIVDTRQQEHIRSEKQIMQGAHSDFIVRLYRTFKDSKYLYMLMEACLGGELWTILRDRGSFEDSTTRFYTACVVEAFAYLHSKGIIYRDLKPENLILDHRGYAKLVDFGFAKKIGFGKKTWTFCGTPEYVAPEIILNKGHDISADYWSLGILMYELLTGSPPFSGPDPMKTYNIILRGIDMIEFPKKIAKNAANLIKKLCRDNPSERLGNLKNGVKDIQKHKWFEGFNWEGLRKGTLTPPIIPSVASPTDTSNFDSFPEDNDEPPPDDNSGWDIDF
Nature of the test: Inhibition of PRKG1 (unknown origin) assessed as remaining activity at 1 uM by Kinome scan method relative to control.

In test [2] the target is Casein kinase I isoform gamma-1 (Homo sapiens) (UniProt Q9HCP0). The test can be described thus: Inhibition of CSNK1G1 (unknown origin) assessed as remaining activity at 1 uM by Kinome scan method relative to control.
Chain of Casein kinase I isoform gamma-1 (Homo sapiens) (Q9HCP0 whole entry, looked up, canonical isoform): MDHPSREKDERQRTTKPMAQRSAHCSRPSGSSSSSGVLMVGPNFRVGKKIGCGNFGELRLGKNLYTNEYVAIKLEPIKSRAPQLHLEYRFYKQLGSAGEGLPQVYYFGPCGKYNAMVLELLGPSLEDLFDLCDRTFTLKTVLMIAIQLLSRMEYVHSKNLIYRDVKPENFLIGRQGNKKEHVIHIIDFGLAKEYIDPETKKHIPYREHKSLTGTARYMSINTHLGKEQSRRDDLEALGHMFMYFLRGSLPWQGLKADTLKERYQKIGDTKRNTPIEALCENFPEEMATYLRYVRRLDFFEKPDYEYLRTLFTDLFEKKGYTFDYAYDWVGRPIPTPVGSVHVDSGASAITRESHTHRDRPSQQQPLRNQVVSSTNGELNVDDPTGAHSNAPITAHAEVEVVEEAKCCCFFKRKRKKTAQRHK
Test [3] has as its system Phosphatidylinositol 4,5-bisphosphate 3-kinase catalytic subunit alpha isoform (Homo sapiens), P42336 [M1043I]. Nature of the test: Inhibition of PIK3CA M1043I mutant (unknown origin) assessed as remaining activity at 1 uM by Kinome scan method relative to control.
Test [4] deals with cAMP-dependent protein kinase catalytic subunit alpha (Homo sapiens) (UniProt P17612). The test can be described thus: Inhibition of PKAC-alpha (unknown origin) assessed as remaining activity at 1 uM by Kinome scan method relative to control.
Test [5] concerns the target T2, Tyrosine-protein kinase JAK3 (Homo sapiens) (UniProt P52333).
T2 sequence (whole entry): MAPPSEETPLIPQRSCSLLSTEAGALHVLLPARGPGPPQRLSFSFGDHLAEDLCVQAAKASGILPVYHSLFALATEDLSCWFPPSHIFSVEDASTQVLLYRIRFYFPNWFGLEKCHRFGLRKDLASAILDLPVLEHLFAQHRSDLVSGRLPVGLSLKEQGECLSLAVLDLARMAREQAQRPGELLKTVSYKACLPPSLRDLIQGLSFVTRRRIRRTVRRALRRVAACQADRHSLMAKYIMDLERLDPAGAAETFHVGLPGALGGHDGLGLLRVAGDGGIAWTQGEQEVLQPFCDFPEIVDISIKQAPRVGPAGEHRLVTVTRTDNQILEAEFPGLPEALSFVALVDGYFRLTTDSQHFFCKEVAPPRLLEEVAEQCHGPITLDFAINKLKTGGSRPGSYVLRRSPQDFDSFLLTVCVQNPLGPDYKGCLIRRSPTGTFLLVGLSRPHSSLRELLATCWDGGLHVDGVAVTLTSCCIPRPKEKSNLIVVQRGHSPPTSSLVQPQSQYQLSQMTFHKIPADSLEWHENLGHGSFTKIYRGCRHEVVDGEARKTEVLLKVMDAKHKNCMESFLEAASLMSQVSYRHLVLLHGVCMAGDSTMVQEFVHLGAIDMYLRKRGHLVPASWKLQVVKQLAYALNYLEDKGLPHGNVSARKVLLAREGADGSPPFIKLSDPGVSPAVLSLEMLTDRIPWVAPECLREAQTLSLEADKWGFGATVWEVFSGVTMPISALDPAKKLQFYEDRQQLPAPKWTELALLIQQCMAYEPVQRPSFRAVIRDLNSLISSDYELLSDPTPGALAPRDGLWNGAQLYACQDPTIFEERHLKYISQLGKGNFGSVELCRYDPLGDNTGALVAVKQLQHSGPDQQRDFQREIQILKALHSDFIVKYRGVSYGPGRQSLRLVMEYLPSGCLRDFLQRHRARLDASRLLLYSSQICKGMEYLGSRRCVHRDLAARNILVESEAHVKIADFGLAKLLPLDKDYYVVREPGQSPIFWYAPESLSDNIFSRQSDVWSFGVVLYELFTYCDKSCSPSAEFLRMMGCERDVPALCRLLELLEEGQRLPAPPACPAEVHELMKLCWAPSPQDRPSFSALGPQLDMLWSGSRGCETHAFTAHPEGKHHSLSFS
Nature of the test: Inhibition of JAK3 JH1 domain (unknown origin) assessed as remaining activity at 1 uM by Kinome scan method relative to control.

Test [6] has as its target Casein kinase I isoform delta (Homo sapiens) (UniProt P48730). Nature of the test: Inhibition of CSNK1D (unknown origin) assessed as remaining activity at 1 uM by Kinome scan method relative to control.
Test [7] deals with Casein kinase II subunit alpha (Homo sapiens) (UniProt P68400). Nature of the test: Inhibition of CSNK2A1 (unknown origin) assessed as remaining activity at 1 uM by Kinome scan method relative to control.
Chain of Casein kinase II subunit alpha (Homo sapiens) (P68400 whole entry, looked up): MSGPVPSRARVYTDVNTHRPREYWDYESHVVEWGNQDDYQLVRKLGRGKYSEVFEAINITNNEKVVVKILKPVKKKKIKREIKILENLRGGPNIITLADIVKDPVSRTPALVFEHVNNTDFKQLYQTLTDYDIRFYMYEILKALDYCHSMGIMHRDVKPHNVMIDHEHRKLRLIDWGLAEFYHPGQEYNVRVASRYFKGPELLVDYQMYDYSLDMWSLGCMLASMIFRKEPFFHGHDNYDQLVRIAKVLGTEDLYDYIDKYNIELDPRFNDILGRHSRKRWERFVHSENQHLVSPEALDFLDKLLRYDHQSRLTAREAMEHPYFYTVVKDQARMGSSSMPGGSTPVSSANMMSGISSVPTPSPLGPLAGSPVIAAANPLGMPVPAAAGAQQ
The target of test [8] is Myosin-IIIb (Homo sapiens) (UniProt Q8WXR4). Nature of the test: Inhibition of MYO3B (unknown origin) assessed as remaining activity at 1 uM by Kinome scan method relative to control.
Chain of Myosin-IIIb (Homo sapiens) (Q8WXR4 whole entry): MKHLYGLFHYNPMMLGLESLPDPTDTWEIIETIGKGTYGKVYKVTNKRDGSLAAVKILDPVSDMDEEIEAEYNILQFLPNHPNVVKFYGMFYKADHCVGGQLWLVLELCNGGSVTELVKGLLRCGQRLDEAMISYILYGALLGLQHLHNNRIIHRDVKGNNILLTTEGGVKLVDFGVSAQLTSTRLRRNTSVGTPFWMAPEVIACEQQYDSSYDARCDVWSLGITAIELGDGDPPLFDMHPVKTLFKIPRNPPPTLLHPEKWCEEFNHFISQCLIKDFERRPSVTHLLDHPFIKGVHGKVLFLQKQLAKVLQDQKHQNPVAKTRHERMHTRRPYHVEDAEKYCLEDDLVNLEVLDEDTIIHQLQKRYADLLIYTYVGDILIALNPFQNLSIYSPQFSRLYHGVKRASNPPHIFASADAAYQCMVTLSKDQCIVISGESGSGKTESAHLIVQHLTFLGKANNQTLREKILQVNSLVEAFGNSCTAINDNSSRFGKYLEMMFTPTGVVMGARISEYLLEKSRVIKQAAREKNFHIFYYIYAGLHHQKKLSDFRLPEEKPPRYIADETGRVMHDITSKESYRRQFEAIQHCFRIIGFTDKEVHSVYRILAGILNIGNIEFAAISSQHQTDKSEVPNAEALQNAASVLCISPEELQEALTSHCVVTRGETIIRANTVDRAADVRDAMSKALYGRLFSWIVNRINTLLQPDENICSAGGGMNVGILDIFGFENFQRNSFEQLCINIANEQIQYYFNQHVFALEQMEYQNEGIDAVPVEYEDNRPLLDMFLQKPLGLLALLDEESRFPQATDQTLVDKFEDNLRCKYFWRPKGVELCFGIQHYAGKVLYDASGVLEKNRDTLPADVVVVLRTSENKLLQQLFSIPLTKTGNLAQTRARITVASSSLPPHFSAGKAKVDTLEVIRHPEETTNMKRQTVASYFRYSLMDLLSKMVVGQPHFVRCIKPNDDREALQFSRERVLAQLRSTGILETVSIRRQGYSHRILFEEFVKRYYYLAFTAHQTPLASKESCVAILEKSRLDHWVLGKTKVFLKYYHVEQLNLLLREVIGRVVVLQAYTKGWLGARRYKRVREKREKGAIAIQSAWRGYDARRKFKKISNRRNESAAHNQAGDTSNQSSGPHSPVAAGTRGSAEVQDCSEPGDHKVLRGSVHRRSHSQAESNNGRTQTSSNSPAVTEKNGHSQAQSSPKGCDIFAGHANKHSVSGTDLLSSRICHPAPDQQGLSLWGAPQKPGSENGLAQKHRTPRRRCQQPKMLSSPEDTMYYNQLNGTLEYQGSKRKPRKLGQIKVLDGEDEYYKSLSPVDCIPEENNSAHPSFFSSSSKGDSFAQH

Chain of Phosphatidylinositol 4,5-bisphosphate 3-kinase catalytic subunit alpha isoform (Homo sapiens), P42336 [M1043I] (P42336 whole entry M1043I, canonical isoform): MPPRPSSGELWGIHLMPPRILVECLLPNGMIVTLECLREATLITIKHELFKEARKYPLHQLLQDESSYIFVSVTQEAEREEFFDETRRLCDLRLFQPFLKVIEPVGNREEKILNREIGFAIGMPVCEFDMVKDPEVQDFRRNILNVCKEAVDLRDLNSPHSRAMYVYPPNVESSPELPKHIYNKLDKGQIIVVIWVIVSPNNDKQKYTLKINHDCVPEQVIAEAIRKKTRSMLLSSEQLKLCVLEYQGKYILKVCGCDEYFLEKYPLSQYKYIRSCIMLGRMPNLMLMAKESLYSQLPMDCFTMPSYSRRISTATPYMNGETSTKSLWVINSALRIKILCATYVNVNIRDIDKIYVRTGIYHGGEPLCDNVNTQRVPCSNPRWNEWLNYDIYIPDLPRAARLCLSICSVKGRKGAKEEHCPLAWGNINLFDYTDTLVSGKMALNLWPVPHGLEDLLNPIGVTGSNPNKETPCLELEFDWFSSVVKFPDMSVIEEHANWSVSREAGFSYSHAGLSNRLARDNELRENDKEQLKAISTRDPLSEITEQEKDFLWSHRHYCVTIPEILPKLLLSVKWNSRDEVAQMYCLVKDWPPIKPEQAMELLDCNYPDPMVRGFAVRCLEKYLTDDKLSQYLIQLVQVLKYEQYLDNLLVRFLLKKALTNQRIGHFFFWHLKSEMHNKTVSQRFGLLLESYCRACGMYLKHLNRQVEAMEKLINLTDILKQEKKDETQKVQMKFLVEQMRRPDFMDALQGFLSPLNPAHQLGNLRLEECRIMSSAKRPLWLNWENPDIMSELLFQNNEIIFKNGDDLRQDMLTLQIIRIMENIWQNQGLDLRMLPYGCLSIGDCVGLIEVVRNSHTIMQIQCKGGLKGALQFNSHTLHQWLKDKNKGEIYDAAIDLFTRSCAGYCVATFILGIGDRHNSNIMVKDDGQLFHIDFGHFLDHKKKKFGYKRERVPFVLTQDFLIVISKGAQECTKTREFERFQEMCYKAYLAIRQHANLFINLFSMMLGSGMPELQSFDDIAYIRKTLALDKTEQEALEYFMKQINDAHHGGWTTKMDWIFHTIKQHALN
Chain of Casein kinase I isoform delta (Homo sapiens) (P48730 whole entry, looked up, canonical isoform): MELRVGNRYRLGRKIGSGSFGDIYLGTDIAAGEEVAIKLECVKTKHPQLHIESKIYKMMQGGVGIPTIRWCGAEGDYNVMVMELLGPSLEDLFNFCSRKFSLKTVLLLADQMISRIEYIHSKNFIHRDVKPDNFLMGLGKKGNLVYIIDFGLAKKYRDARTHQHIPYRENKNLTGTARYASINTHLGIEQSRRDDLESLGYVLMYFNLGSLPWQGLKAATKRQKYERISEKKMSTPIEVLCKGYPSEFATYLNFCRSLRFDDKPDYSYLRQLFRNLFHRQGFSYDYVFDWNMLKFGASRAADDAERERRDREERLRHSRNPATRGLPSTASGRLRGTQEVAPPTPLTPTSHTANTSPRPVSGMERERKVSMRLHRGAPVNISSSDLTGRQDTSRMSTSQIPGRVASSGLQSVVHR

Take `Nc1ccccc1Nc1ccc2c(c1)CCc1ccccc1C2=O`: the Activity in test [1] was determined as 88%; in test [2], 79%; in test [3], 84%; in test [4], 83%; in test [5] it was 96%; in test [6] it was 98%. Moreover, the Activity in test [7] was 86%; in test [8], 93%.
In the case of `O=C1c2ccc(Nc3ccc(F)cc3F)cc2CCc2ccc(OC[C@H](O)CO)cc21` [Skepinone-L], the Activity in test [1] was determined as 100%; in test [2] it was 90%; in test [3] it was 90%; in test [4], 95%; in test [5], 91%; in test [6], 100%. Moreover, the Activity in test [7] worked out at 96%; in test [8], 99%.
